Measured values as given in PubChem BioAssay (NCI).
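Cultured in 96-well plates, cells were exposed to test compound for 48 hours across five concentrations. Abbreviation: GI50, concentration required for 50% inhibition of growth. At the TGI there is no net growth.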

How the values were obtained:
Experiment in all cases: growth of human tumour cells (NCI), 48 h
SNB-75 CNS = tested on: SNB-75 CNS
786-0 renal = tested on: 786-0 renal
RPMI-8226 leukemia = tested on: RPMI-8226 leukemia
MALME-3M melanoma = tested on: MALME-3M melanoma
MDA-MB-435 = tested on: MDA-MB-435
ACHN renal = tested on: ACHN renal
MDA-MB-231 breast = tested on: MDA-MB-231 breast
OVCAR-3 ovarian = tested on: OVCAR-3 ovarian
OVCAR-5 ovarian = tested on: OVCAR-5 ovarian
SN12C renal = tested on: SN12C renal
T-47D breast = tested on: T-47D breast

Structure (SMILES)	TGI (SNB-75 CNS) [µM]	TGI (786-0 renal) [µM]	TGI (RPMI-8226 leukemia) [µM]	TGI (MALME-3M melanoma) [µM]	TGI (MDA-MB-435) [µM]	TGI (ACHN renal) [µM]	TGI (MDA-MB-231 breast) [µM]	TGI (OVCAR-3 ovarian) [µM]	TGI (OVCAR-5 ovarian) [µM]	TGI (SN12C renal) [µM]	TGI (T-47D breast) [µM]	GI50 (SNB-75 CNS) [µM]	GI50 (RPMI-8226 leukemia) [µM]	GI50 (MDA-MB-435) [µM]	GI50 (ACHN renal) [µM]	GI50 (MDA-MB-231 breast) [µM]	GI50 (OVCAR-3 ovarian) [µM]	GI50 (SN12C renal) [µM]	GI50 (T-47D breast) [µM]
C/C(=N\NC(=S)NCCCNC(=S)N/N=C(\C)c1ccccn1)c1ccccn1	31.7	6.07	> 100	17.5	> 43.5	16.6	> 49.9	20.7	> 90.3	11.2	> 24.1								
COC(=O)C(CCSC)NC(=O)Cc1ccc(C(=O)c2ccccc2)cc1 (stereo unspecified)	> 100	> 100	> 100	> 100	93.6	> 100	> 100	> 100	> 100	> 100	> 100								
Nn1c(Cc2ccc([N+](=O)[O-])cc2)n[nH]c1=O	> 100	> 100	> 100	> 100	> 100	> 100	> 100	> 100	> 100	> 100	> 100								
CCOC(=O)C(SCCO)C(C(=O)OCC)n1ccc(=O)[nH]c1=O (stereo unspecified)	> 95.9	> 50.6	47.8	32.9	> 58.5	> 66.6	> 82.2	72.7	47.6	> 100	> 100								
CCCCCCCCCCNC(=O)CCC(NC(=O)c1ccc(N(C)Cc2cnc3nc(N)nc(N)c3n2)cc1)C(=O)NCCCCCCCCCC (stereo unspecified)	32.1	13.5	> 70.4	37.7	15.4	> 100	11.3	26.8	66.1	> 57.2	40.3								
CCOC(=O)c1c(N2CCOCC2)[nH]c(=O)c(C(c2ccco2)c2c(O)c(C(=O)OCC)c(N3CCOCC3)[nH]c2=O)c1O	> 100	> 100	> 100	> 100	> 100	> 100	> 100	> 100	> 100	> 100	> 100								
Nc1onc2c1Cc1c(noc1N)-c1ccccc1-2	95.1	> 100	> 100	> 100	> 100	> 100	> 100	> 100	> 100	> 100	> 100								
C=C(Br)CNC(=O)CCC(=O)NCC(=C)Br	> 100	> 100	> 100	> 100	> 100	> 100	> 100	> 100	> 100	> 100	> 100								
Cc1ccc(NC(=O)c2cc(S(=O)(=O)Nc3nc4ncccc4[nH]3)c(SSc3cc(Cl)c(C(=O)Nc4ccc(C)cc4)cc3S(=O)(=O)Nc3nc4ncccc4[nH]3)cc2Cl)cc1	> 100	> 100	> 100	> 100	> 100	> 100	> 100	> 100	> 100	> 100	> 100								
N#Cc1cnc(N)nc1NCC1(CO)CC(CCc2ccccc2)C1 (stereo unspecified)	> 83.1	> 100	> 100	> 100	> 100	> 100	> 100	> 100	> 100	> 100	> 20.5								
CC(=O)Nc1ccc(C2SCc3nc4ccccc4n32)cc1 (stereo unspecified)	> 100	> 100	> 100	> 86.8	> 100	> 100	> 100	> 100	> 100	> 100	> 100								
COc1ccc2c(c1)CCc1c-2n(CCN2CCCCC2)c2ccc(OC)cc12	> 100	> 100	> 100	> 100	> 100	> 100	> 100	> 100	> 100	> 100	> 100								
CC1=C(C(=O)Nc2ccccc2)C2(CCCCC2)C(C#N)=C(SCC(=O)Nc2ccc(Br)cc2)N1	30.3	13.3	7.11	7.48	29.6	19.8	27.1	15	14.6	16.6	92.5								
CCCCn1c2c(n(CCCC)c1=S)-c1c(n(CCCC)c(=S)n1CCCC)SSc1c(n(CCCC)c(=S)n1CCCC)-c1c(n(CCCC)c(=S)n1CCCC)SSc1c(n(CCCC)c(=S)n1CCCC)-c1c(n(CCCC)c(=S)n1CCCC)SS2	> 50	> 50	> 50	6.19	> 42.1	11.1	8.67	14.6	25.4	> 50	9.51								
C=CC(Cl)(CBr)CCC(Br)C(C)(C)Cl (stereo unspecified)	68.8	28.1	29.5	35.8	30.3	38.2	27.6	33.2	31.1	48.4	39.6								
COC(=O)C1(C)C=CC(=O)C2(C)C1C(O)C1OC3CC(c4ccoc4)C(C)=C3C1(C)C2CC(=O)O (stereo unspecified)	> 100	> 100	> 100	> 100	> 100	> 100	> 100	> 100	> 100	> 100	> 100								
CCCCCCCCCCCCC(O)[C@H]1CC[C@H](C(O)CCCCCC(=O)CCCCC2CC(C(C)=O)C(=O)O2)O1 (stereo partly specified)	59.3	52.1	> 27.8	23.7	35.6	70.4	44.6	19.3	50	29	> 41.5	7.11	2.12	1.92	1.68	2.8	2.25	12.9	3.84
Cc1ccc(S(=O)(=O)NNCNC(=O)c2ccccc2)cc1	> 100	> 100	> 100	> 100	> 100	> 100	> 100	> 100	> 100	> 100	> 100								
